Source: patent US6749863B1, “Targeted liposome gene delivery” (Georgetown University, priority 1997, dated 2004)
pIC50: −log10 of the molar value.

Experiments:
[1] = tested on: MDA-MB-231; assay: Chemosensitization, XTT cell proliferation assay; format: cell-based; conditions: Homo sapiens; drug alone on untransfected MDA-MB-231 cells
Description: (§1) This example summarizes part of the in vitro p53-mediated chemosensitization experiments (XTT assays) performed on the cell lines for which transfection with transferrin-coupled or folate-coupled liposomes is described in Example 17. […] The chemosensitization effect is dependent upon the liposome used and the p53 DNA dose. VIN=vinblastine; DXR=doxorubicin; CDDP=cisplatin. Fold Sensitization is calculated from the individual IC50 values. DNA dose=ug of DNA applied per well (approximately 1×10^4 cells/well in a 96-well plate).

[2] = tested on: DU145; assay: Chemosensitization, XTT cell proliferation assay; format: cell-based; conditions: Homo sapiens, DU-145, drug alone on untransfected DU145 cells
Description: as §1
(§2) The ability of the LipF(B)-delivered AS-HER-2 to sensitize MDA-MB-435, JSQ-3, DU145 and U87 (Human glioblastoma) cells to chemotherapeutic agents was evaluated. Sensitivity was determined using the XTT cell proliferation assay. […] Comparison of the cells treated with LipF(B) mediated AS-HER-2, to that of cells treated with a LipF(B) control oligonucleotide (SC) indicated a greater than 30 fold increase in sensitization of 435 cells to taxotere. In contrast, only a 2.5 fold level of sensitization was evident after transfection with AS-HER-2 using the commercial Lipofectin (Life Technologies, Inc.). Treatment of JSQ-3 cells with LipF(E)-AS-HER-2 increased the effect of docetaxel almost 25 fold. […] A two fold increase in sensitization of DU145 cells to docetaxel was seen after treatment with LipF(E)-AS-HER-2.

[3] = tested on: PANC-1; assay: Chemosensitization, XTT cell proliferation assay; format: cell-based; conditions: Homo sapiens, PANC-1, drug alone on untransfected PANC-1 cells
Description: as §1
Here also a greater than 70 fold increase in drug sensitivity was induced by treatment with LipF(B)-AS-RAS.

[4] = tested on: MDA-MB-435 mammary fat pad xenograft tumors; assay: Chemosensitization of xenograft tumors in vivo; design: species or system athymic nude mice; conditions: AS-HER-2 only or docetaxel only
Description: Mice bearing subcutaneous mammary fat pad MDA-MB-435 tumors of approximately 100 mm^3 were i.v. injected via the tail vein with LipF(C)-p53 every 3-4 days for a total of eight injections. Doxorubicin (Dxr) (10 mg/kg) was injected i.v. weekly for 4 weeks. […] In a second experiment, two separate liposome compositions [LipF(E) and LipF(C)] were employed.
The ability of the LipF(B)-AS-HER-2 to target and sensitize preexisting MDA-MB-435 xenograft tumors to the chemotherapeutic agent docetaxel in vivo was examined by assessing tumor regression as well as tumor growth inhibition. Female athymic (Ncr nu/nu) mice carrying MDA-MB-435 mammary fat pad xenograft tumors of approximately 70 mm^3 were intravenously injected, via the tail vein, with LipF(B)-AS-HER-2 (at approximately 0.6 mM of oligonucleotides) every other day to a total of 11 injections. A total of 11 intravenous doses of docetaxel (approximately 20 mg/kg/dose every other day) were also administered to the animals. […] Therefore, the systemically delivered, targeted liposome delivery of antisense oligonucleotides, in this case AS-HER-2, was clearly able to sensitize these tumors to the chemotherapeutic agent, strongly inhibiting tumor growth almost three weeks after the end of treatment.

[5] = tested on: DU145 xenograft tumors; assay: Systemic LipF-p53 plus chemotherapy, xenograft growth; format: in vivo, mice; conditions: complex twice/week, 5 injections, or docetaxel 10 mg/kg, alone
Description: Mice bearing subcutaneous DU145 xenograft tumors of approximately 100 mm^3 were injected, via the tail vein, with a ligand-liposome p53 complex using folate as the targeting ligand (LipF(B)-p53). This liposome complex was administered twice/week (to a total of 5 injections) along with the chemotherapeutic agent docetaxel at a dose of 10 mg/kg.

[6] = tested on: JSQ-3; assay: Chemosensitization, XTT cell proliferation assay; format: cell-based; conditions: Homo sapiens, drug alone on untransfected JSQ-3 cells
Description: In addition to radiation, chemotherapy is becoming more commonly used in the treatment of SCCHN. As lack of functional wtp53 has been associated with failure to respond to chemotherapy, in this example we examined the effect of ligand-facilitated liposome mediated wtp53 gene therapy on sensitization of SCCHN cell line JSQ-3 to chemotherapeutic agents. 1×10^4 cells were plated/well of a 96-well plate. 24 hours later, the cells were transfected with LipT(A)-p53. Two days after transfection, anti-neoplastic agents were added at increasing concentrations (in triplicate). 4-6 days later the XTT cell proliferation assay was performed and IC50 values, the drug concentration yielding 50% growth inhibition, calculated.
as §1, with “DNA dose=ug of DNA applied per well (approximately 1×10^4 cells/well in a 96-well plate).” left out
The ability of the LipF(B)-delivered AS-HER-2 to sensitize MDA-MB-435, JSQ-3, DU145 and U87 (Human glioblastoma) cells to chemotherapeutic agents was evaluated. Sensitivity was determined using the XTT cell proliferation assay. […]

[7] = tested on: U87; assay: Chemosensitization, XTT cell proliferation assay; format: cell-based; conditions: Homo sapiens, U-87 MG, drug alone on untransfected U87 cells
Description: as §1, §2

[8] = tested on: PANC-1 xenograft tumors; assay: Systemic LipF-p53 plus chemotherapy, xenograft growth; format: in vivo, athymic nude mice; conditions: single agent only
Excerpt: Xenograft tumors of pancreatic cancer cell line PANC-1 were induced by the subcutaneous inoculation of greater than 1×10^7 cells onto athymic nude mice. When the tumors reached approximately 500-1000 mm^3, the tumors were excised and minced into small (<1 mm) pieces. These freshly prepared tumor pieces (suspended in PBS) were inoculated subcutaneously (using a 14 g needle) onto the flanks of athymic nude mice. When the tumors reached an average of 100 mm^3 in volume, treatment was begun. The animals received, via intravenous injection, LipF(B)-p53. This liposome complex was administered twice/week to a total of 7 injections. The chemotherapeutic agent gemcitabine was also administered intraperitoneally at a dose of either 60mg/kg or 120mg/kg twice weekly. A total of 13 gemcitabine injections were administered. One group of animals also received twice weekly intratumoral injections of LipF(B)-p53 (a total 6) in addition to the intravenous administration of the LipF(B)-p53 and gemcitabine. […] This was particularly evident in the group that received both i.v. and i.t injections.

`CC[C@]1(O)C[C@@H]2CN(CCc3c([nH]c4ccccc34)[C@@](C(=O)OC)(c3cc4c(cc3OC)N(C)[C@H]3[C@@](O)(C(=O)OC)[C@H](OC(C)=O)[C@]5(CC)C=CCN6CC[C@]43[C@@H]65)C2)C1` [Vln, vinblastine] gave a pIC50 [1] of 8.74.

In the case of `CC(=O)O[C@@]12CO[C@@H]1C[C@H](O)[C@@]1(C)C(=O)[C@H](O)C3=C(C)[C@@H](OC(=O)[C@H](O)[C@@H](NC(=O)OC(C)(C)C)c4ccccc4)C[C@@](O)([C@@H](OC(=O)c4ccccc4)[C@H]21)C3(C)C` [Taxotere, docetaxel], the pIC50 [2] was 7.38, the pIC50 [3] was 7.94 and the “Tumor growth, single treatment” value [4] was “some docetaxel effect”. For the same compound, the “Tumor growth, single treatment” value [5] was “neither the LipF(B)-p53 complex alone, nor docetaxel alone had any substantial effect on tumor growth”.

`CC(=O)O[C@H]1C(=O)[C@@]2(C)[C@H]([C@H](OC(=O)c3ccccc3)[C@]3(O)C[C@H](OC(=O)[C@H](O)[C@@H](NC(=O)c4ccccc4)c4ccccc4)C(C)=C1C3(C)C)[C@]1(OC(C)=O)CO[C@@H]1C[C@@H]2O` [Taxol] was tested, and the pIC50 [6] was 7.80, the pIC50 [1] was 7.28 and the pIC50 [2] was 7.88.

For `COc1cccc2c1C(=O)c1c(O)c3c(c(O)c1C2=O)C[C@@](O)(C(=O)CO)C[C@@H]3O[C@H]1C[C@H](N)[C@H](O)[C@H](C)O1` [DXR, doxorubicin], the pIC50 [1] was 6.57.

With `Nc1ccn([C@@H]2O[C@H](CO)[C@@H](O)C2(F)F)c(=O)n1` [Gemzar, gemcitabine] the pIC50 [7] was 5.89, the pIC50 [3] was 6.10 and the “Outcome of control groups (single treatments)” value [8] was “euthanized due to tumor burden by day 54”.
